Laboratory results taken from article PMC6112376, “Comprehensive Analyses and Prioritization of Tox21 10K Chemicals Affecting Mitochondrial Function by in-Depth Mechanistic Studies” (Environmental Health Perspectives, 2018).
Where two headings read alike, the source gives them in different places.

What was measured:
hNSC = test: MMP assay in human neural stem cells (hNSC); type: cell-based; settings: Homo sapiens, Neural stem cell, 1 h, read-out: hNSC IC50 (MMP)
HepG2 cells [1] = test: ROS-Glo hydrogen peroxide (ROS) assay; type: cell-based, human
HepG2 cells [2] = test: Intracellular ATP content (cell viability) assay; type: cell-based, human; settings: for IC50: Homo sapiens, HepG2, 40 h
[3] = system: p53 (p53-bla HCT-116 cells); test: p53 β-lactamase reporter gene assay; type: cell-based, human; settings: 16 h incubation, mean±SD of three experiments
[4] = system: Nrf2/ARE (ARE-bla HepG2 cells); test: ARE β-lactamase reporter gene assay; type: cell-based, human; settings: Homo sapiens, HepG2; 16 h incubation; mean±SD of three experiments; read-out: ARE (HepG2) EC50
[5] = system: isolated rat liver mitochondria; test: Oxygen consumption, Clark-type oxygen electrode; type: biochemical
[6] = system: HeLa cells expressing YFP-Parkin; test: Parkin translocation assay; type: cell-based, human
rat primary hepatocytes [7] = system: rat primary hepatocytes
HepG2 cells [8] = settings: cited from earlier work; for IC50: read-out: MMP assays IC50 (µM), qHTS-HepG2
HepG2 cells [9] = test: cells; settings: Homo sapiens; for Emax: HepG2, read-out: MMP assays efficacy (%) HepG2
[10] = system: Caenorhabditis elegans strain PE255; test: In vivo C. elegans ATP status assay; settings: for effect on ATP content (in words): 0.5–100μM; for minimal effective concentration: Caenorhabditis elegans, read-out: LEC LUM: lowest effect concentration for luminescence, a measure of nematode ATP content
rat primary hepatocytes [11] = test: MMP assay in rat primary hepatocytes; settings: Rattus norvegicus, Hepatocyte
[12] = system: Caenorhabditis elegans (Bristol N2); test: C. elegans larval development and growth assay; settings: for effect on larval growth (in words): 0.5–100μM
[13] = HepG2, 1 h, read-out: HepG2 IC50 Galactose (MMP)
[14] = HepG2, 1 h, read-out: HepG2 IC50 Glucose (MMP)
[15] = 1 h, read-out: Rat hepatocytes IC50 (MMP)

## O=C(Nc1ccccc1)Nc1cnns1 [Thidiazuron]
hNSC
  IC50: 8.39 µM
HepG2 cells [1]
  ROS (HepG2) EC50: Inactive
HepG2 cells [2]
  ATP (HepG2, galactose) IC50: Inactive
  ATP (HepG2, glucose) IC50: Inactive
[3]
  p53 (HCT-116) EC50: Inactive
[4]
  EC50: 27.3 ± 9.74 µM
[5]
  Potential Mechanism: Uncoupler
[5]; 0.16 µM
  I-ADP, % of control (O2 consumption rate): 93 (51.1) % of control
  I-sub, % of control (O2 consumption rate): 104 (13.6) % of control
  II-ADP, % of control (O2 consumption rate): 91 (80.1) % of control
  II-sub, % of control (O2 consumption rate): 100 (24.5) % of control
[5]; 0.8 µM
  I-ADP, % of control (O2 consumption rate): 74 (40.3) % of control
  I-sub, % of control (O2 consumption rate): 95 (12.4) % of control
  II-ADP, % of control (O2 consumption rate): 93 (82.2) % of control
  II-sub, % of control (O2 consumption rate): 106 (26.1) % of control
[5]; 4 µM
  I-ADP, % of control (O2 consumption rate): 87 (47.5) % of control
  I-sub, % of control (O2 consumption rate): 134 (17.5) % of control
  II-ADP, % of control (O2 consumption rate): 95 (83.6) % of control
  II-sub, % of control (O2 consumption rate): 119 (29.3) % of control
[5]; 20 µM
  I-ADP, % of control (O2 consumption rate): 99 (54.4) % of control
  I-sub, % of control (O2 consumption rate): 311 (40.8) % of control
  II-ADP, % of control (O2 consumption rate): 104 (92.1) % of control
  II-sub, % of control (O2 consumption rate): 269 (66.2) % of control
[6]
  Parkin recruitment: Inactive
Rat primary hepatocytes [7]
  MMP assays efficacy (%) Rat Hepatocytes: -136±46%
  Rat hepatocytes (efficacy) (MMP): 14.7±2.52 ( −98.5±15.2 ) %
HepG2 cells [8]
  MMP assays efficacy (%) qHTS-HepG2: -126±9%
  IC50: 3.43 ± 0.73 µM
HepG2 cells [9]; [13]
  IC50: 14.6 µM
HepG2 cells [9]; [14]
  IC50: 12 µM
HepG2 cells [9]; HepG2, read-out: MMP assays IC50 (µM) HepG2
  IC50: 6.31 µM
HepG2 cells [9]
  Emax: 104%
[10]; 0.5 µM
  LUM: mean difference in luminescence (ATP content) relative to plate controls: 0.0432
[10]; 1 µM
  LUM: mean difference in luminescence (ATP content) relative to plate controls: 0.1041
[10]; 5 µM
  LUM: mean difference in luminescence (ATP content) relative to plate controls: 0.03776
[10]; 10 µM
  LUM: mean difference in luminescence (ATP content) relative to plate controls: 0.1711
[10]; 25 µM
  LUM: mean difference in luminescence (ATP content) relative to plate controls: 0.3608
[10]; 50 µM
  LUM: mean difference in luminescence (ATP content) relative to plate controls: 0.588
[10]; 75 µM
  LUM: mean difference in luminescence (ATP content) relative to plate controls: 0.6504
[10]; 100 µM
  LUM: mean difference in luminescence (ATP content) relative to plate controls: 0.4761
[10]
  effect on ATP content (in words): statistically significant decreases in ATP content
  minimal effective concentration: 50 µM
Rat primary hepatocytes [11]; [15]
  IC50: 14.7 µM
Rat primary hepatocytes [11]; read-out: MMP assays IC50 (µM) Rat Hepatocytes
  IC50: 4.56 ± 2.78 µM
[12]; 0.5 µM
  EXT: mean difference in nematode size relative to plate controls: 0.1764
[12]; 1 µM
  EXT: mean difference in nematode size relative to plate controls: 0.07124
[12]; 5 µM
  EXT: mean difference in nematode size relative to plate controls: 0.08978
[12]; 10 µM
  EXT: mean difference in nematode size relative to plate controls: 0.07446
[12]; 25 µM
  EXT: mean difference in nematode size relative to plate controls: 0.09242
[12]; 50 µM
  EXT: mean difference in nematode size relative to plate controls: 0.2069
[12]; 75 µM
  EXT: mean difference in nematode size relative to plate controls: 0.07987
[12]
  effect on larval growth (in words): did not affect growth

## O=C(Nc1ccc(Cl)cc1)Nc1ccc(Cl)c(Cl)c1 [Triclocarban]
hNSC
  IC50: 0.43 µM
HepG2 cells [1]; Homo sapiens, HepG2, 2 h, read-out: ROS (HepG2) EC50
  EC50: 31.8 µM
HepG2 cells [2]; read-out: ATP (HepG2, galactose) IC50
  IC50: 15.8 µM
HepG2 cells [2]; read-out: ATP (HepG2, glucose) IC50
  IC50: 19.1 µM
[3]; Homo sapiens
  EC50: 5.33 ± 2.02 µM
[4]
  EC50: 6.68 µM
[5]
  Potential Mechanism: Uncoupler
  effect on mitochondrial respiration (in words): effects similar to those of FCCP
[5]; 0.032 µM
  I-ADP, % of control (O2 consumption rate): 107 (58.8) % of control
  I-sub, % of control (O2 consumption rate): 115 (15.1) % of control
  II-ADP, % of control (O2 consumption rate): 93 (82.1) % of control
  II-sub, % of control (O2 consumption rate): 93 (22.8) % of control
[5]; 0.16 µM
  I-ADP, % of control (O2 consumption rate): 96 (52.6) % of control
  I-sub, % of control (O2 consumption rate): 118 (15.5) % of control
  II-ADP, % of control (O2 consumption rate): 104 (91.7) % of control
  II-sub, % of control (O2 consumption rate): 114 (28.1) % of control
[5]; 0.8 µM
  I-ADP, % of control (O2 consumption rate): 103 (56.5) % of control
  I-sub, % of control (O2 consumption rate): 153 (20.1) % of control
  II-ADP, % of control (O2 consumption rate): 99 (87.1) % of control
  II-sub, % of control (O2 consumption rate): 128 (31.4) % of control
[5]; 20 µM
  I-ADP, % of control (O2 consumption rate): 143 (78.2) % of control
  I-sub, % of control (O2 consumption rate): 631 (82.6) % of control
  II-ADP, % of control (O2 consumption rate): 95 (84.1) % of control
  II-sub, % of control (O2 consumption rate): 290 (71.4) % of control
[6]
  Parkin recruitment: Active
Rat primary hepatocytes [7]
  MMP assays efficacy (%) Rat Hepatocytes: -113±53%
  Rat hepatocytes (efficacy) (MMP): 1.77±0.60 ( −73.7±3.11 ) %
HepG2 cells [8]
  MMP assays efficacy (%) qHTS-HepG2: -119±8%
  IC50: 0.14 ± 0.05 µM
HepG2 cells [9]; [13]
  IC50: 1.36 µM
HepG2 cells [9]; [14]
  IC50: 0.93 µM
HepG2 cells [9]; HepG2, read-out: IC50 in HepG2 cells (MMP, tier-one retest)
  IC50: 0.17 µM
HepG2 cells [9]
  Emax: 102%
[10]; 0.05 µM
  LUM: mean difference in luminescence (ATP content) relative to plate controls: -0.00831
[10]; 0.1 µM
  LUM: mean difference in luminescence (ATP content) relative to plate controls: 0.1123
[10]; 0.5 µM
  LUM: mean difference in luminescence (ATP content) relative to plate controls: 0.4779
[10]; 1 µM
  LUM: mean difference in luminescence (ATP content) relative to plate controls: 2.3316
[10]; 5 µM
  LUM: mean difference in luminescence (ATP content) relative to plate controls: 2.049
[10]; 10 µM
  LUM: mean difference in luminescence (ATP content) relative to plate controls: 3.074
[10]; 25 µM
  LUM: mean difference in luminescence (ATP content) relative to plate controls: 3.397
[10]; 50 µM
  LUM: mean difference in luminescence (ATP content) relative to plate controls: 3.34
[10]; 75 µM
  LUM: mean difference in luminescence (ATP content) relative to plate controls: 3.2375
[10]; 100 µM
  LUM: mean difference in luminescence (ATP content) relative to plate controls: 2.494
[10]
  effect on ATP content (in words): inhibited
  minimal effective concentration: 0.5 µM
Rat primary hepatocytes [11]; 1 h, read-out: IC50 in rat primary hepatocytes (MMP, tier-one retest)
  IC50: 0.17 µM
Rat primary hepatocytes [11]; [15]
  IC50: 1.77 µM
[12]; 0.05 µM
  EXT: mean difference in nematode size relative to plate controls: 0.05115
[12]; 0.1 µM
  EXT: mean difference in nematode size relative to plate controls: -0.1287
[12]; 0.5 µM
  EXT: mean difference in nematode size relative to plate controls: 0.279
  larval growth effect at 0.5μM: severe larval growth arrest
[12]; 1 µM
  EXT: mean difference in nematode size relative to plate controls: 1.127
[12]; 5 µM
  EXT: mean difference in nematode size relative to plate controls: 1.268
[12]; 10 µM
  EXT: mean difference in nematode size relative to plate controls: 1.264
[12]; 25 µM
  EXT: mean difference in nematode size relative to plate controls: 1.322
[12]; 50 µM
  EXT: mean difference in nematode size relative to plate controls: 1.038
[12]; 75 µM
  EXT: mean difference in nematode size relative to plate controls: 0.8579
[12]; 100 µM
  EXT: mean difference in nematode size relative to plate controls: 0.6913
[12]
  effect on larval growth (in words): inhibited
[12]; Caenorhabditis elegans, read-out: LEC EXT: lowest effect concentration for extinction, a measure of nematode size
  minimal effective concentration: 0.5 µM
